Data as given in patent publication US20240325530A1, “COMBINATION THERAPIES” (Versanis Bio, Inc., priority 2021, published 2024).
Where two headings read alike, the source gives them in different places. Blank lines part the entries; values can stand above or below the molecule they belong to.

Tests used:
[1] = Obese mouse model (60% fat diet), initial study: food intake, body composition by MRI, physical activity; design: species or system C57B1/6J mice; details: in vivo
Experimental: C57B1/6J mice at 5-6 weeks of age were fed a 60% fat diet for 14 weeks and reached an average body weight of 49 grams at the start of dosing, as an obese mouse model. Employing a modified 3×3 factorial design, groups of mice (n=8 per group) received a murinized version of bimagrumab, CDD866, at 0.3 mg/kg or 20 mg/kg intraperitoneally (i.p.) weekly and/or semaglutide at 5 μg/kg or 40 μg/kg subcutaneously (s.c.) daily. The high fat diet was continued through the treatment period, and food intake and body weight were monitored twice weekly. Clinical observations, body composition by MRI, and physical activity, were assessed once weekly.

[2] = Pharmacokinetics of semaglutide and CDD866 alone and combined in DIO mice; assay type: in vivo; details: analyte semaglutide, mean plasma; for MRT inf / MRT last: mouse; for MRT inf: read-out: MRT0-inf; for MRT last: read-out: MRT0-last
Experimental: Dedicated cohorts of diet induced obesity (DIO) mice were used. Blood sampling was performed at 5 time points, with 3 mice per time point.

[3] = DIO mice: CDD866 combined with semaglutide, liraglutide or tirzepatide (body weight, fat, lean mass, food intake, open field); assay type: in vivo; details: Day 22, DIO mice; CDD866 20 mg/kg, semaglutide 40 μg/kg, tirzepatide 45/22.5 μg/kg (Table 4)
Experimental: DIO mice received a murinized version of bimagrumab, CDD866, at 20 mg/kg intraperitoneally (i.p.) weekly in combination with semaglutide (40 μg/kg once daily), liraglutide (40 μg/kg twice daily), or tirzepatide at 45 μg/kg once daily and after day 11, 22.5 μg/kg once daily) subcutaneously (s.c.). The GLP-1 agonists in this study were not dose escalated.

[4] = overweight and obese patients; cited from earlier work
[5] = group CDD866-20 mpk + Semaglutide-40 ug/kg

clinical observations [1]: no clinical observations of concern | Tlast [2, 5]: 24.0 h | Tlast ([2]; group Semaglutide-5 ug/kg): 8.00 h | Tlast ([2]; group Semaglutide-40 ug/kg): 24.0 h | MRT inf [2, 5]: 16.6 h | MRT last [2, 5]: 9.76 h | MRT last ([2]; group Semaglutide-5 ug/kg): 4.38 h | MRT inf ([2]; group Semaglutide-40 ug/kg): 15.2 h | MRT last ([2]; group Semaglutide-40 ug/kg): 10 h
Molecule: CC[C@H](C)[C@H](NC(=O)[C@H](Cc1ccccc1)NC(=O)[C@H](CCC(=O)O)NC(=O)[C@H](CCCCNC(=O)COCCOCCNC(=O)COCCOCCNC(=O)CC[C@H](NC(=O)CCCCCCCCCCCCCCCCC(=O)O)C(=O)O)NC(=O)[C@H](C)NC(=O)[C@H](C)NC(=O)[C@H](CCC(N)=O)NC(=O)CNC(=O)[C@H](CCC(=O)O)NC(=O)[C@H](CC(C)C)NC(=O)[C@H](Cc1ccc(O)cc1)NC(=O)[C@H](CO)NC(=O)[C@H](CO)NC(=O)[C@@H](NC(=O)[C@H](CC(=O)O)NC(=O)[C@H](CO)NC(=O)[C@@H](NC(=O)[C@H](Cc1ccccc1)NC(=O)[C@@H](NC(=O)CNC(=O)[C@H](CCC(=O)O)NC(=O)C(C)(C)NC(=O)[C@@H](N)Cc1cnc[nH]1)[C@@H](C)O)[C@@H](C)O)C(C)C)C(=O)N[C@@H](C)C(=O)N[C@@H](Cc1c[nH]c2ccccc12)C(=O)N[C@@H](CC(C)C)C(=O)N[C@H](C(=O)N[C@@H](CCCNC(=N)N)C(=O)NCC(=O)N[C@@H](CCCNC(=N)N)C(=O)NCC(=O)O)C(C)C [Semaglutide, semaglutide]

Molecule: tirzepatide
Body weight [3]: 40.2 ± 1.3 g | Fat [3]: 12.7 ± 1.4 g | Lean mass [3]: 25.4 ± 0.4 g

B1: Bimagrumab: ActRII receptor antibody, sequences SEQ ID NO: 1-10 (antibody, chains of the INN, looked up, V domains shown)
VH: QVQLVQSGAEVKKPGASVKVSCKASGYTFTSSYINWVRQAPGQGLEWMGTINPVSGSTSYAQKFQGRVTMTRDTSISTAYMELSRLRSDDTAVYYCARGGWFDYWGQGTLVTVSS
VL: QSALTQPASVSGSPGQSITISCTGTSSDVGSYNYVNWYQQHPGKAPKLMIYGVSKRPSGVSNRFSGSKSGNTASLTISGLQAEDEADYYCGTFAGGSYYGVFGGGTKLTVL
increase in muscle mass [4]: 4-8%
